Reference: patent US9796733B2, “Imidazo-pyrazine derivatives useful as soluble guanylate cyclase activators” (Merck Sharp & Dohme Corp., priority 2014, dated 2017)

Target: T1, sGC α1/β1 heterodimer (Homo sapiens, UniProt Q02108+Q02153)
T1 construct: expressed in transfected cells; host or cells: CHO-K1 (clone #7, CHO-K1/sGC)
T1 sequence (Q02108 1-690): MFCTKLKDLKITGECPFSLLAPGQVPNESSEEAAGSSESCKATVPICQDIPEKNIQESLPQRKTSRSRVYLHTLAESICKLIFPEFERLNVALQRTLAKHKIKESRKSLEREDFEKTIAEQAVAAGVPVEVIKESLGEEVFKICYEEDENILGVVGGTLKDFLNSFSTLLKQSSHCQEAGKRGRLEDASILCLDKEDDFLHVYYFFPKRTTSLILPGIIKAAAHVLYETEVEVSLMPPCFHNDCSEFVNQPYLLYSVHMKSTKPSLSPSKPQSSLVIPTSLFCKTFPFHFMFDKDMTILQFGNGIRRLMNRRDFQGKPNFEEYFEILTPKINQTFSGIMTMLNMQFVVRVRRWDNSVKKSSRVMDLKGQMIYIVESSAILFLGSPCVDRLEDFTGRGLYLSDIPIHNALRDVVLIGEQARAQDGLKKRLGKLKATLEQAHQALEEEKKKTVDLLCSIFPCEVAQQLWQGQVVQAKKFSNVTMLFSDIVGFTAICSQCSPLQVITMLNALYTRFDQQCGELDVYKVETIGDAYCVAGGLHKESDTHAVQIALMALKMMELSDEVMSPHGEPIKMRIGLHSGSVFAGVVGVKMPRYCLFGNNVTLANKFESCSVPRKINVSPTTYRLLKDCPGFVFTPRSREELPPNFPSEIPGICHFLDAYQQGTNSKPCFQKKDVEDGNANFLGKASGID
T1 sequence (Q02153 1-619): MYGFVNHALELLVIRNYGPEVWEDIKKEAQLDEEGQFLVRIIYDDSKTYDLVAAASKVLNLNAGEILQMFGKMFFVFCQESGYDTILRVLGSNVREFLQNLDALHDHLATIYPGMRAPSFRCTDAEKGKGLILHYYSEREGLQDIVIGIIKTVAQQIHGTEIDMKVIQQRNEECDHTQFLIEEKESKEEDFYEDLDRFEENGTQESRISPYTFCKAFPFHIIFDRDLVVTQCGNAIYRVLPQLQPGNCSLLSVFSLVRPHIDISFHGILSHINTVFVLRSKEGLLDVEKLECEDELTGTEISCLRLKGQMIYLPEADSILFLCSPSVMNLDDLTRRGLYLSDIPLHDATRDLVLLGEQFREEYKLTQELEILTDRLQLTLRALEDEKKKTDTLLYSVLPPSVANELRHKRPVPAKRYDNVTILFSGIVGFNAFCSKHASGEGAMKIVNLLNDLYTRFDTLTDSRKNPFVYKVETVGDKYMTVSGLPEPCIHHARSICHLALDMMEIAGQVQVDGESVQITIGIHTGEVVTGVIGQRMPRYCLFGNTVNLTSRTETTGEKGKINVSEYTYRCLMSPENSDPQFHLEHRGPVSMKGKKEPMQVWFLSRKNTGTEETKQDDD
Assay: Cell-based sGC functional assay (CASA assay): cGMP generation in CHO-K1/sGC cells, HTRF detection
Conditions: for Emax: CHO-K1, percent activation relative to standard Compound A in CHO-K1/sGC cells, read-out: % Act.; for EC50: inflection point (IP) of cGMP generation in CHO-K1/sGC cells, 4P fit, activity expressed as percentage of Compound A; for % Act.: percent activation relative to standard Compound A in CHO-K1/sGC cells
From the text: Biological Assay 1: Cell-Based sGC Functional Assay (CASA Assay)
sGC is a heme-containing enzyme that converts GTP to secondary messenger cGMP. Increases in cGMP levels affect several physiological processes including vasorelaxation through multiple downstream pathways. […] Heme-dependent activators (HDAs) preferentially activate sGC containing a ferrous heme group. To determine the effect of sGC activators on enzyme activity, the CASA assay was developed to monitor the generation of cGMP in a cell line that stably expresses the heterodimeric sGC protein.
A CHO-K1 cell line stably expressing the sGC α1/β1 heterodimer was generated using a standard transfection protocol. CHO-K1 cells were transfected with plasmids pIREShyghsGCal and pIRESneo-hsGCβ1 simultaneously using FUGENE reagent. Clones that stably express both subunits were selected with hygromycin and neomycin for 2 weeks. Clone #7 was chosen for the assay and was designated CHO-K1/sGC. CHO-K1/sGC cells were maintained in F-K12 medium containing 10% heat-inactivated Fetal Bovine Serum (FBS), 100 μg/mL penicillin/streptomycin, 0.5 mg/mL hygromycin and 0.25 mg/mL G418. The cells were then cryopreserved in LN2. On the day of the assay, cells thawed and resuspended in EBSS Assay Buffer (Sigma, E3024) supplemented with 5 mM MgCl2, 10 mM HEPES (4-(2-hydroxyethyl)piperazine-1-ethanesulfonic acid) and 0.05% BSA (bovine serum albumin) (EAB) and cell density was then adjusted to 4×10^5/mL with EAR IBMX (3-isobutyl-1-methylxanthin, 0.5 mM) was added to inhibit degradation of cGMP. Compounds were diluted from DMSO stock solutions and added to the assay at a final DMSO concentration of 2.5%. Cells were incubated with compounds in the presence and absence of 1 μM of Diethylenetriamine/nitric oxide adduct (DETA-NO; Sigma, 17018) for 1 hr at 37° C. At the end of the incubation period, the reaction was terminated and the cells were lysed with the detection reagents from Cisbio Kits. The level of intracellular cGMP was determined using an HTRF-based assay kit (CisBio, 62GM2PEC), which detects the displacement of a fluorescence labeled cGMP from its specific antibody. The cGMP produced by test compounds was directly compared to the maximum cGMP production (this value was set to equal 100% activation.) of the published sGC-HDA Compound A:
[drawing 597] (Example 1 in WO 2010/065275, published Jun. 10, 2010). The test compounds' activities were then expressed as a percentage of Compound A, the standard in every experiment. This percent activation was calculated either in the presence or absence of DETA-NO which was then plotted. IP and maximum fold induction was derived using ADA analysis software for 4P fit.
The compounds in the Examples of the instant invention had inflection points (IP) less than or equal to 10 μM and more particularly less than or equal to about 1 μM.

Row | SMILES | Emax | EC50 | % Act.
1 | CC1(c2ccc(Cl)cc2)C(=O)Nc2nc(-c3cn4ccnc4cn3)nc(N3CCC(C(F)(F)F)C3)c21 (racemic) [Example 279A, 5-(4-chlorophenyl)-2-(imidazo[1,2-a]pyrazin-6-yl)-5-methyl-4-(3-(trifluoromethyl)pyrrolidin-1-yl)-5H-pyrrolo[2,3-d]pyrimidin-6(7H)-one] | 69% | 0.058 µM | –
2 | CC1(C(=O)NC2CC2)C(=O)Nc2nc(-c3cn4ccnc4c(Cc4cccc(F)c4)n3)nc(N)c21 (single isomer, unassigned) [Example 31A, 4-Amino-N-cyclopropyl-2-(8-(3-fluorobenzyl)imidazo[1,2-a]pyrazin-6-yl)-5-methyl-6-oxo-6,7-dihydro-5H-pyrrolo[2,3-d]pyrimidine-5-carboxamide] | 141% | 0.046 µM | –
3 | CC1(C(=O)NC2CC2)C(=O)Nc2nc(-c3cn4ccnc4c(Cc4cccc(F)c4)n3)nc(N)c21 (single isomer, unassigned) [Example 36A, 4-amino-N-cyclopropyl-2-(8-(3-fluorobenzyl)imidazo[1,2-a]pyrazin-6-yl)-5-methyl-6-oxo-6,7-dihydro-5H-pyrrolo[2,3-d]pyrimidine-5-carboxamide] | – | 0.304 µM | 151%
4 | CC1(C(=O)NC2CC2)C(=O)Nc2nc(-c3cn4ccnc4c(Cc4cccc(F)c4)n3)nc(N)c21 (single isomer, unassigned) [Example 36B, 4-amino-N-cyclopropyl-2-(8-(3-fluorobenzyl)imidazo[1,2-a]pyrazin-6-yl)-5-methyl-6-oxo-6,7-dihydro-5H-pyrrolo[2,3-d]pyrimidine-5-carboxamide] | – | 0.959 µM | 154%
5 | Nc1nc(-c2cn3ccnc3c(Cc3cccc(F)c3)n2)nc2c1C(C(=O)NC1CC1)(C1CC1)C(=O)N2 (single isomer, unassigned) [Example 38A, 4-amino-N,5-dicyclopropyl-2-(8-(3-fluorobenzyl)imidazo[1,2-a]pyrazin-6-yl)-6-oxo-6,7-dihydro-5H-pyrrolo[2,3-d]pyrimidine-5-carboxamide] | – | 0.061 µM | 124%
6 | Nc1nc(-c2cn3ccnc3c(Cc3ccccc3)n2)nc2c1C(C(=O)NC1CC1)(C1CC1)C(=O)N2 (single isomer, unassigned) [Example 40A, 4-amino-2-(8-benzylimidazo[1,2-a]pyrazin-6-yl)-N,5-dicyclopropyl-6-oxo-6,7-dihydro-5H-pyrrolo[2,3-d]pyrimidine-5-carboxamide] | – | 0.053 µM | 138%
7 | Nc1nc(-c2cn3ccnc3c(Cc3ccccc3)n2)nc2c1C(C(=O)NC1CC1)(C1CC1)C(=O)N2 (single isomer, unassigned) [Example 40B, 4-amino-2-(8-benzylimidazo[1,2-a]pyrazin-6-yl)-N,5-dicyclopropyl-6-oxo-6,7-dihydro-5H-pyrrolo[2,3-d]pyrimidine-5-carboxamide] | 127% | 0.027 µM | –
8 | Nc1nc(-c2cn3cc(C(F)(F)F)nc3c(Cc3ccccc3F)n2)nc2c1C(C(=O)NC1CC1)(C1CC1)C(=O)N2 (single isomer, unassigned) [Example 45B, 4-amino-N,5-dicyclopropyl-2-(8-(2-fluorobenzyl)-2-(trifluoromethyl)imidazo[1,2-a]pyrazin-6-yl)-6-oxo-6,7-dihydro-5H-pyrrolo[2,3-d]pyrimidine-5-carboxamide] | 75% | 0.217 µM | –
9 | Nc1nc(-c2cn3ccnc3c(CCC(F)(F)C(F)(F)F)n2)nc2c1C(C(=O)NC1CC1)(C1CC1)C(=O)N2 (single isomer, unassigned) [Example 61B, 4-amino-N,5-dicyclopropyl-6-oxo-2-(8-(3,3,4,4,4-pentafluorobutyl)imidazo[1,2-a]pyrazin-6-yl)-6,7-dihydro-5H-pyrrolo[2,3-d]pyrimidine-5-carboxamide] | – | 0.45 µM | 83%
10 | CCC1(C2CC2)C(=O)Nc2nc(-c3cn4ccnc4c(Cc4ccccc4)n3)nc(N)c21 (single isomer, unassigned) [Example 77A, 4-amino-2-(8-benzylimidazo[1,2-a]pyrazin-6-yl)-5-cyclopropyl-5-ethyl-5H-pyrrolo[2,3-d]pyrimidin-6(7H)-one] | – | 0.09 µM | 151%
11 | CCC1(C2CC2)C(=O)Nc2nc(-c3cn4ccnc4c(Cc4ccccc4)n3)nc(N)c21 (single isomer, unassigned) [Example 77B, 4-amino-2-(8-benzylimidazo[1,2-a]pyrazin-6-yl)-5-cyclopropyl-5-ethyl-5H-pyrrolo[2,3-d]pyrimidin-6(7H)-one] | – | 0.03 µM | 176%
12 | CC(C)C1(C)C(=O)Nc2nc(-c3cn4ccnc4c(Cc4ccccc4)n3)nc(N)c21 (single isomer, unassigned) [Example 80B, 4-amino-2-(8-benzylimidazo[1,2-a]pyrazin-6-yl)-5-isopropyl-5-methyl-5H-pyrrolo[2,3-d]pyrimidin-6(7H)-one] | 88% | 0.253 µM | –
13 | CC1(C2CC2)C(=O)Nc2nc(-c3cn4ccnc4c(Cc4ccccc4)n3)nc(N)c21 (single isomer, unassigned) [Example 82B, 4-amino-2-(8-benzylimidazo[1,2-a]pyrazin-6-yl)-5-cyclopropyl-5-methyl-5H-pyrrolo[2,3-d]pyrimidin-6(7H)-one] | 114% | 0.473 µM | –
14 | CCC1(C)C(=O)Nc2nc(-c3cn4ccnc4c(Cc4ccccc4)n3)nc(N)c21 (single isomer, unassigned) [Example 84B, 4-amino-2-(8-benzylimidazo[1,2-a]pyrazin-6-yl)-5-ethyl-5-methyl-5H-pyrrolo[2,3-d]pyrimidin-6(7H)-one] | 100% | 0.18 µM | –
15 | CC1(c2ccc(F)cc2)C(=O)Nc2nc(-c3cn4ccnc4c(Cc4cccc(F)c4)n3)nc(N)c21 (single isomer, unassigned) [Example 90B, 4-amino-2-(8-(3-fluorobenzyl)imidazo[1,2-a]pyrazin-6-yl)-5-(4-fluorophenyl)-5-methyl-5H-pyrrolo[2,3-d]pyrimidin-6(7H)-one] | – | 0.14 µM | 129%
